Test results reported in patent publication US8008303B2, “Biphenyl derivatives and their use in treating hepatitis C” (AstraZeneca AB, priority 2005, dated 2011).
Read-outs that look alike come from different tables or passages of the source.

Key:
[1] = tested on: HCV replicon cells Huh 9B; experiment: HCV replicon assay (luciferase readout); type: cell-based
Protocol: (§1) HCV replicon cells Huh 9B (ReBlikon), containing the firefly luciferase-ubiquitin-neomycin phosphotransferase fusion protein and EMCV-IRES driven HCV polyprotein with cell culture adaptive mutations.
Cells were cultured at 37° C. in a 5% CO2 environment and split twice a week on seeding at 2×10^6 cells/flask on day 1 and 1×10^6 3 days later. G418 at 0.5 mg/ml was added to the culture medium but not the assay medium.
The culture medium consisted of DMEM with […] glucose and glutamax (Gibco 61965-026) supplemented with 1× non-essential amino acids (Invitrogen 11140-035), penicillin (100 IU/ml)/streptomycin (100 μg/ml) (Invitrogen 15140-122), FCS (10%, 50 ml) and 1 mg/ml G418 (Invitrogen 10131-027) & 10% Australian foetal calf serum (Invitrogen 10099-141).
A flask of cells was trypsinised and a cell count carried out. Cells were diluted to 100,000 cells/ml and 100 μl of this used to seed one opaque white 96-well plate (for the replicon assay) and one flat-bottomed clear plate (for the tox assay) for every seven compounds to be tested for IC50. Wells G12 and H12 were left empty in the clear plate as the blank. Plates were then incubated at 37° C. in a 5% CO2 environment for 24 h.
(§2) On the following day compound dilutions are made up in medium at twice their desired final concentration in a clear round bottomed plate. All dilutions have a final DMSO concentration of 1%.
Once the dilution plate had been made up, controls and compounds were transferred to the assay plate (containing the cells) at 100 μl /well in duplicate plates. Exception: no compound was added to wells A1 and A2 of either plate and 100 μl of 1% DMSO was added to these instead. Plates were then incubated at 37° C. with 5% CO2 for 72 h.
At the end of the incubation time, the cells in the white plate were harvested by washing 23.5 mM beetle luciferin (Promega E1603), 26 mM ATP (Sigma 0-2060) in […] Tris buffer pH 7.8 aliquoted and stored at −80 C was thawed and diluted 1:50 in luciferase assay buffer (20 mM Tricine (Sigma T-0377), 1.07 mM magnesium carbonate hydroxide (Sigma M-5671), 0.1 mM EDTA (Sigma E-5134), 2.67 mM MgSO4 (BDH 101514Y), 33.3 mM dithiothreitol (Sigma 150460) pH 7.8).
The M injector of the microplate luminometer (Lmax, Molecular Devices) was primed with 5×300 μl injections of the diluted substrate. After 5-60 min incubation in lysis buffer at room temperature, a plate was inserted into the luminometer and 100 μl luciferase assay reagent was added by the injector on the luminometer. The signal was measured using a 1 second delay followed by a 4 second measurement programme.

[2] = tested on: HCV replicon cells Huh 9B; type: cell-based
Protocol: as §1
A flask of cells was trypsinised and a cell count carried out. […] Wells G12 and H12 were left empty in the clear plate as the blank. Plates were then incubated at 37° C. in a 5% CO2 environment for 24 h.
as §2
Exception: no compound was added to wells A1 and A2 of either plate and 100 μl of 1% DMSO was added to these instead. Plates were then incubated at 37° C. with 5% CO2 for 72 h.
The clear plate was stained with 100 μl 0.5% methylene blue in 50% ethanol at room temperature for 1 h, followed by solvation of the absorbed methylene blue in 100 μl per well of 1% lauroylsarcosine. Absorbance of the plate was measured on a microplate spectrophotometer (Molecular Devices) and the absorbance for each concentration of compound expressed as a proportion of the relative DMSO control.

[3] = Hepatitis C virus, 72 h, concentration reducing replicon level (luciferase activity) by 50% vs untreated cell control, 72 h incubation
[4] = concentration reducing total cell area by 50% relative to DMSO controls, methylene blue, absorbance 620 nm, 72 h incubation

Structure (SMILES) | IC50 [1] [µM] | TD50 [2] | IC50 [1, 3] [µM] | TD50 [2, 4]
Cc1ccc(C(=O)Nc2ccc(N3CCOCC3)cc2)cc1-c1ccc(C(=O)NCc2ccc(N3CCOCC3)cc2)cc1 [Example 20, 6-Methyl-biphenyl-3,4′-dicarboxylic acid 4′-(4-morpholin-4-yl-benzylamide) 3-[(4-morpholin-4-yl-phenyl)-amide]] | > 5 | ** (key: * < 50 μM; ** > 50 μM) | – | –
CCCCNS(=O)(=O)c1cccc(NC(=O)c2ccc(-c3cc(C(=O)Nc4ccc(N5CCOCC5)cc4)ccc3C)cc2)c1 [Example 21, 6-Methyl-biphenyl-3,4′-dicarboxylic acid 4′-[(3-butylsulfamoyl-phenyl)-amide] 3-[(4-morpholin-4-yl-phenyl)-amide]] | 1 to 5 | ** (key: * < 50 μM; ** > 50 μM) | – | –
Cc1ccc(C(=O)Nc2ccc(N3CCOCC3)cc2)cc1-c1ccc(C(=O)Nc2ccc(Cl)c(Cl)c2)cc1 [Example 22, 6-Methyl-biphenyl-3,4′-dicarboxylic acid 4′-[(3,4-dichloro-phenyl)-amide] 3-[(4-morpholin-4-yl-phenyl)-amide]] | 1 to 5 | ** (key: * < 50 μM; ** > 50 μM) | – | –
Cc1ccc(C(=O)Nc2ccc(N3CCOCC3)cc2)cc1-c1ccc(C(=O)Nc2cccc(C(F)(F)F)c2)cc1 [Example 23, 6-Methyl-biphenyl-3,4′-dicarboxylic acid 3-[(4-morpholin-4-yl-phenyl)-amide] 4′-[(3-trifluoromethyl-phenyl)-amide]] | 1 to 5 | * (key: * < 50 μM; ** > 50 μM) | – | –
Cc1ccc(C(=O)Nc2ccc(N3CCOCC3)cc2)cc1-c1ccc(C(=O)Nc2ccc(C#N)cc2)cc1 [Example 24, 6-Methyl-biphenyl-3,4′-dicarboxylic acid 4′-[(4-cyano-phenyl)-amide] 3-[(4-morpholin-4-yl-phenyl)-amide]] | > 5 | ** (key: * < 50 μM; ** > 50 μM) | – | –
Cc1ccc(C(=O)Nc2ccc(N3CCOCC3)cc2)cc1-c1ccc(C(=O)Nc2cccc(OC(F)(F)F)c2)cc1 [Example 25, 6-Methyl-biphenyl-3,4′-dicarboxylic acid 3-[(4-morpholin-4-yl-phenyl)-amide] 4′-[(3-trifluoromethoxy-phenyl)-amide]] | 1 to 5 | * (key: * < 50 μM; ** > 50 μM) | – | –
Cc1ccc(C(=O)Nc2ccc(N3CCOCC3)cc2)cc1-c1ccc(C(=O)Nc2cccc(-c3ccn(C)n3)c2)cc1 [Example 26, 6-Methyl-biphenyl-3,4′-dicarboxylic acid 4′-{[3-(1-methyl-1H-pyrazol-3-yl)-phenyl]-amide} 3-[(4-morpholin-4-yl-phenyl)-amide]] | > 5 | ** (key: * < 50 μM; ** > 50 μM) | – | –
Cc1ccc(C(=O)Nc2ccc(N3CCOCC3)cc2)cc1-c1ccc(C(=O)Nc2cccc(F)c2)cc1 [Example 27, 6-Methyl-biphenyl-3,4′-dicarboxylic acid 4′-[(3-fluoro-phenyl)-amide] 3-[(4-morpholin-4-yl-phenyl)-amide]] | 1 to 5 | ** (key: * < 50 μM; ** > 50 μM) | – | –
Cc1ccc(C(=O)Nc2ccc(N3CCOCC3)cc2)cc1-c1ccc(C(=O)Nc2ccc(-c3ccno3)cc2)cc1 [Example 28, 6-Methyl-biphenyl-3,4′-dicarboxylic acid 4′-[(4-isoxazol-5-yl-phenyl)-amide] 3-[(4-morpholin-4-yl-phenyl)-amide]] | < 1 | ** (key: * < 50 μM; ** > 50 μM) | – | –
CNS(=O)(=O)c1ccc(NC(=O)c2ccc(-c3cc(C(=O)Nc4ccc(N5CCOCC5)cc4)ccc3C)cc2)cc1 [Example 29, 6-Methyl-biphenyl-3,4′-dicarboxylic acid 4′-[(4-methylsulfamoyl-phenyl)-amide] 3-[(4-morpholin-4-yl-phenyl)-amide]] | < 1 | ** (key: * < 50 μM; ** > 50 μM) | – | –
Cc1ccc(C(=O)Nc2ccc(N3CCOCC3)cc2)cc1-c1ccc(C(=O)Nc2ccc(Br)c(Cl)c2)cc1 [Example 30, 6-Methyl-biphenyl-3,4′-dicarboxylic acid 4′-[(4-bromo-3-chloro-phenyl)-amide] 3-[(4-morpholin-4-yl-phenyl)-amide]] | 1 to 5 | ** (key: * < 50 μM; ** > 50 μM) | – | –
Cc1ccc(C(=O)Nc2ccc(N3CCOCC3)cc2)cc1-c1ccc(C(=O)Nc2cccc(C(C)O)c2)cc1 (stereo not drawn) [Example 31, 6-Methyl-biphenyl-3,4′-dicarboxylic acid 4′-{[3-(1-hydroxy-ethyl)-phenyl]-amide} 3-[(4-morpholin-4-yl-phenyl)-amide]] | 1 to 5 | ** (key: * < 50 μM; ** > 50 μM) | – | –
CCOC(=O)c1cccc(NC(=O)c2ccc(-c3cc(C(=O)Nc4ccc(N5CCOCC5)cc4)ccc3C)cc2)c1 [Example 32, 3-{[2′-Methyl-5′-(4-morpholin-4-yl-phenylcarbamoyl) -biphenyl-4-carbonyl]-amino}-benzoic acid ethyl ester] | – | – | < 1 | ** (** > 50 μM)
COc1cccc(NC(=O)c2ccc(-c3cc(C(=O)Nc4ccc(N5CCOCC5)cc4)ccc3C)cc2)c1 [Example 33, 6-Methyl-biphenyl-3,4′-dicarboxylic acid 4′-[(3-methoxy-phenyl)-amide] 3-[(4-morpholin-4-yl-phenyl)-amide]] | < 1 | ** (key: * < 50 μM; ** > 50 μM) | – | –
COc1ccc(NC(=O)c2ccc(-c3cc(C(=O)Nc4ccc(N5CCOCC5)cc4)ccc3C)cc2)cc1OC [Example 34, 6-Methyl-biphenyl-3,4′-dicarboxylic acid 4′-[(3,4-dimethoxy-phenyl)-amide] 3-[(4-morpholin-4-yl-phenyl)-amide]] | 1 to 5 | ** (key: * < 50 μM; ** > 50 μM) | – | –
Cc1ccc(C(=O)Nc2ccc(N3CCOCC3)cc2)cc1-c1ccc(C(=O)Nc2ccccc2CN(C)C2CCCCC2)cc1 [Example 35, 6-Methyl-biphenyl-3,4′-dicarboxylic acid 4′-({2-[(cyclohexyl-methyl-amino)-methyl]-phenyl}-amide) 3-[(4-morpholin-4-yl-phenyl)-amide]] | > 5 | ** (key: * < 50 μM; ** > 50 μM) | – | –
Cc1ccc(C(=O)Nc2ccc(N3CCOCC3)cc2)cc1-c1ccc(C(=O)Nc2cccnc2)cc1 [Example 36, 6-Methyl-biphenyl-3,4′-dicarboxylic acid 3-[(4-morpholin-4-yl-phenyl)-amide] 4′-pyridin-3-ylamide] | 1 to 5 | * (key: * < 50 μM; ** > 50 μM) | – | –
Cc1ccc(C(=O)Nc2ccc(N3CCOCC3)cc2)cc1-c1ccc(C(=O)N2CCN(c3cccc(Cl)c3Cl)CC2)cc1 [Example 37, 4′-[4-(2,3-Dichloro-phenyl)-piperazine-1-carbonyl]-6-methyl-biphenyl-3-carboxylic acid (4-morpholin-4-yl-phenyl)-amide] | – | – | > 5 | ** (** > 50 μM)
Cc1ccc(C(=O)Nc2ccc(N3CCOCC3)cc2)cc1-c1ccc(C(=O)Nc2ccc3[nH]c(C(F)(F)F)nc3c2)cc1 [Example 38, 6-Methyl-biphenyl-3,4′-dicarboxylic acid 3-[(4-morpholin-4-yl-phenyl)-amide] 4′-[(2-trifluoromethyl-1H-benzoimidazol-5-yl)-amide]] | 1 to 5 | ** (key: * < 50 μM; ** > 50 μM) | – | –
Cc1ccc(C(=O)Nc2ccc(N3CCOCC3)cc2)cc1-c1ccc(C(=O)Nc2ccc(CC#N)cc2)cc1 [Example 39, 6-Methyl-biphenyl-3,4′-dicarboxylic acid 4′-[(4-cyanomethyl-phenyl)-amide] 3-[(4-morpholin-4-yl-phenyl)-amide]] | 1 to 5 | * (key: * < 50 μM; ** > 50 μM) | – | –
Cc1ccc(C(=O)Nc2ccc(N3CCOCC3)cc2)cc1-c1ccc(C(=O)NCc2ccsc2)cc1 [Example 40, 6-Methyl-biphenyl-3,4′-dicarboxylic acid 3-[(4-morpholin-4-yl-phenyl)-amide] 4′-[(thiophen-3-ylmethyl)-amide]] | 1 to 5 | ** (key: * < 50 μM; ** > 50 μM) | – | –
